The values below come from patent publication US8329651B2, “Method for renal disease diagnosis and prognosis using annexin A1 and Rab23 as markers” (National Defense Medical Center, priority 2009, dated 2012).

The data set can be described thus: Adriamycin-induced focal segmental glomerulosclerosis (FSGS) in mice: urine protein, serum creatinine, BUN. The class given is in vivo. As to conditions: 8-week-old BALB/c mice, adriamycin 0.1 mg/per 10 g body weight intravenously, day 15. The protocol:
8-week-old BALB/c mice were injected with adriamycin (0.1 mg/per 10 g body weight) intravenously to induce Focal Segmental Glomerulosclerosis (FSGS). Blood, urine, and kidney tissue samples were collected at days 0, 7, 15, and 20 after injection. More specifically, the blood samples were collected from the retro-orbital venous plexus and the urine samples were collected by gentle abdominal massage. The samples were centrifuged to remove insoluble substances and then stored in liquid nitrogen. When urine proteins are to be measured, the corresponding samples were collected on parafilms. The modified Bradford protein assay was performed to examine urine protein concentration, the picric acid colorimetric kit (Sigma 555-1) was used for detecting creatinine, and an urease assay kit provided by Sigma (640-5) was used for determining the level of blood urea nitrogen (BUN).

Compound `COc1cccc2c1C(=O)c1c(O)c3c(c(O)c1C2=O)C[C@@](O)(C(=O)CO)C[C@@H]3O[C@H]1C[C@H](N)[C@H](O)[C@H](C)O1` [adriamycin] registered a serum creatinine level (control mice 0.48±0.03) of 2.02 ± 0.17 mg/dL. Also, under “control mice 0.59±0.082”, the urine protein level was determined as 16.84 ± 3.13 mg/mL. Further, the “BUN (blood urea nitrogen) level” value (control mice 21.85±1.99) worked out at 71.42 ± 8.09 mg/dL.
